Test results: paper PMC5466588 (Redox Biology, 2017)

Legend:
Assay in all cases: Di-E-GSSG fluorescent reductase assay
Type in all cases: biochemical
[1] = target: protein disulfide isomerase (PDI) (Homo sapiens, UniProt P07237)
ERp72 = target: T1, ERp72 (Homo sapiens, UniProt P13667)
T1 sequence (P13667 21-645): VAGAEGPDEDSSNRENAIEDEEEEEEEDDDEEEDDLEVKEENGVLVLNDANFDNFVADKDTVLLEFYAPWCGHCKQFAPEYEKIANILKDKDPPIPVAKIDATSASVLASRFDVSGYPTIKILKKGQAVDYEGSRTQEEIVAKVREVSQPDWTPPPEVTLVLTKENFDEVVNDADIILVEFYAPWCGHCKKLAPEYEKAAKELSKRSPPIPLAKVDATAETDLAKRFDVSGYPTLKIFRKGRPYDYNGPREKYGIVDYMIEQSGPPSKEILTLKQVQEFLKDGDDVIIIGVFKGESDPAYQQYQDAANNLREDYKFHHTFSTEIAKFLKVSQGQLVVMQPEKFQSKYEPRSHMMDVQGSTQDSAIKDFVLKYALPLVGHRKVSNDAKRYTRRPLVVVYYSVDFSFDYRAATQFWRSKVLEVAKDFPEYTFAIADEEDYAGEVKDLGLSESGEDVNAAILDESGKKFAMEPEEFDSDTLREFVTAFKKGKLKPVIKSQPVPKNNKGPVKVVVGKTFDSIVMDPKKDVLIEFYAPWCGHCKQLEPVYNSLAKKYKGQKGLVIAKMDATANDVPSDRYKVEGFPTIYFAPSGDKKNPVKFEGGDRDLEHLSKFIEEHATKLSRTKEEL

ERp5 = target: T2, ERp5 (Homo sapiens, UniProt Q15084)
T2 sequence (Q15084 20-440): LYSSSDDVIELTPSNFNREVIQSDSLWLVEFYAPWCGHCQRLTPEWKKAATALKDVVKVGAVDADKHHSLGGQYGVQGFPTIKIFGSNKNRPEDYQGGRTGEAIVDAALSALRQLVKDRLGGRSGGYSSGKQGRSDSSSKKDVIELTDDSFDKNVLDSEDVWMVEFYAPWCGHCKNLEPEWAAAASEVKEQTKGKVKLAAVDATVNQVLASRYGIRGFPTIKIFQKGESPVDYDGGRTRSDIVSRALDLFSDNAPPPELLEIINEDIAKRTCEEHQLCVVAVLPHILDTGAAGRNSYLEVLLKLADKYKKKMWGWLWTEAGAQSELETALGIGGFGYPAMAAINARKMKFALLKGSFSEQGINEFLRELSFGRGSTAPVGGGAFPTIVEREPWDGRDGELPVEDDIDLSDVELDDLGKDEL

ERp57 = target: T3, ERp57 (Homo sapiens, UniProt P30101)
T3 sequence (P30101 25-505): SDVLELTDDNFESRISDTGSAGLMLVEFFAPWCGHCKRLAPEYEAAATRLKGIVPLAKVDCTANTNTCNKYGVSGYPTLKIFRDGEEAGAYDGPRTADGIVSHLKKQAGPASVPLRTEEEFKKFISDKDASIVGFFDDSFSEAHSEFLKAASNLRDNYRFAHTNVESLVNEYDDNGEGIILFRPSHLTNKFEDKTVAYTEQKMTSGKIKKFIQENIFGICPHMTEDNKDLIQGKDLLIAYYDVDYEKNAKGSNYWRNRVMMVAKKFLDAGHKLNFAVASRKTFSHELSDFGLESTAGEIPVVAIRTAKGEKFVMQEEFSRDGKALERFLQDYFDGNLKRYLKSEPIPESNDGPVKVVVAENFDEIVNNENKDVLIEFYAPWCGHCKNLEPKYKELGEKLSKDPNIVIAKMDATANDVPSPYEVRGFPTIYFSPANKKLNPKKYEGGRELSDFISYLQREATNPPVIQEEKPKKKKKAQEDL

Sequence of protein disulfide isomerase (PDI) (P07237 18-508): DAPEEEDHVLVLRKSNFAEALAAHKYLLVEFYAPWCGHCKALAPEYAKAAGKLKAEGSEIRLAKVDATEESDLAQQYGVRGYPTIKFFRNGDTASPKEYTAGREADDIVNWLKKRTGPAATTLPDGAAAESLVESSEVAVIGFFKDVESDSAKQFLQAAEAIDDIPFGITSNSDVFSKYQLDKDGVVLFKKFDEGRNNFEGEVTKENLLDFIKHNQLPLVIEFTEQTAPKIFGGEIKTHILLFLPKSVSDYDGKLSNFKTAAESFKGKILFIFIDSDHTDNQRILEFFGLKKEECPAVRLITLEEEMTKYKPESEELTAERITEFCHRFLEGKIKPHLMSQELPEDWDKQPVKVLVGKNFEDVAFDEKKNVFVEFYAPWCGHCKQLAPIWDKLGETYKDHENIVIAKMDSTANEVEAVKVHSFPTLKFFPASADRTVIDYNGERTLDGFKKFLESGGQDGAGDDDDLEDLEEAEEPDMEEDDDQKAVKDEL

Molecule `COc1cc(/C=C/[N+](=O)[O-])ccc1OC(=O)c1cccc(Cl)c1Cl` [HPW-RX40, 2-Methoxy-4-[(E)-2-nitrovinyl]phenyl 2,3-dichlorobenzoate] has an IC50 [1] of 1.45 µM, an IC50 (ERp72) of 18.8 µM and an IC50 (ERp5) of 2.6 µM. It also gave an IC50 (ERp57) of 4.3 µM.
